In PubChem BioAssay AID1963976 (Molecular Pharmacology Branch, DTP, NCI, 2024):

Tested on: 435261-313-R-J1-PDC tumor spheroid viability
Test: Anticancer human tumor 435261-313-R-J1-PDC patient-derived colon adenocarcinoma cell line growth inhibition [PI3K]
Conditions: spheroids with HUVEC and MSC; for IC50: curve of first compound; for viability, T/C: stronger effect = lower value
Summary of the method: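 Tumor cells were combined with HUVEC and MSCs into spheroids, then dosed with PI3K-inhibitor combinations over half-log ranges capped near clinical Cmax or 10 microM.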

[1] = second compound 0.0316 µM, first compound 0.0316 µM
[2] = second compound 0.0316 µM, first compound 0.1 µM
[3] = second compound 0.0316 µM, first compound 0.316 µM
[4] = second compound 0.0316 µM, first compound 1 µM
[5] = second compound 0.0316 µM, first compound 3.16 µM
[6] = second compound 0.0316 µM, first compound 10 µM
[7] = second compound 0.1 µM, first compound 0.0316 µM
[8] = second compound 0.1 µM, first compound 0.1 µM
[9] = second compound 0.1 µM, first compound 0.316 µM
[10] = second compound 0.1 µM, first compound 1 µM
[11] = second compound 0.1 µM, first compound 3.16 µM
[12] = second compound 0.1 µM, first compound 10 µM
[13] = second compound 0.316 µM, first compound 0.0316 µM
[14] = second compound 0.316 µM, first compound 0.1 µM
[15] = second compound 0.316 µM, first compound 0.316 µM
[16] = second compound 0.316 µM, first compound 1 µM
[17] = second compound 0.316 µM, first compound 3.16 µM
[18] = second compound 0.316 µM, first compound 10 µM
[19] = second compound 1 µM, first compound 0.0316 µM
[20] = second compound 1 µM, first compound 0.1 µM
[21] = second compound 1 µM, first compound 0.316 µM
[22] = second compound 1 µM, first compound 1 µM
[23] = second compound 1 µM, first compound 3.16 µM
[24] = second compound 1 µM, first compound 10 µM
[25] = second compound 3.16 µM, first compound 0.0316 µM
[26] = second compound 3.16 µM, first compound 0.1 µM
[27] = second compound 3.16 µM, first compound 0.316 µM
[28] = second compound 3.16 µM, first compound 1 µM
[29] = second compound 3.16 µM, first compound 3.16 µM
[30] = second compound 3.16 µM, first compound 10 µM
[31] = second compound 10 µM, first compound 0.0316 µM
[32] = second compound 10 µM, first compound 0.1 µM
[33] = second compound 10 µM, first compound 0.316 µM
[34] = second compound 10 µM, first compound 1 µM
[35] = second compound 10 µM, first compound 3.16 µM
[36] = second compound 10 µM, first compound 10 µM
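Note: spheroids exposed to compounds for 7 days.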

Structure (SMILES): CCCS(=O)(=O)Nc1ccc(F)c(C(=O)c2c[nH]c3ncc(-c4ccc(Cl)cc4)cc23)c1F + Cc1nc(NC(=O)N2CCCC2C(N)=O)sc1-c1ccnc(C(C)(C)C(F)(F)F)c1
- IC50 (second compound 0.0316 µM): 5150 nM
- IC50 (second compound 0.1 µM): 4870 nM
- IC50 (second compound 0.316 µM): 4370 nM
- IC50 (second compound 1 µM): 31.6 nM
- IC50 (second compound 3.16 µM): < 31.6 nM
- IC50 (second compound 10 µM): < 31.6 nM
- viability, T/C [1]: 68.7%
- viability, T/C [2]: 117%
- viability, T/C [3]: 121%
- viability, T/C [4]: 107%
- viability, T/C [5]: 83%
- viability, T/C [6]: 5.07%
- viability, T/C [7]: 78.3%
- viability, T/C [8]: 95.7%
- viability, T/C [9]: 104%
- viability, T/C [10]: 83.9%
- viability, T/C [11]: 77%
- viability, T/C [12]: 6.18%
- viability, T/C [13]: 57.6%
- viability, T/C [14]: 78%
- viability, T/C [15]: 70.4%
- viability, T/C [16]: 64.5%
- viability, T/C [17]: 67.8%
- viability, T/C [18]: 4.86%
- viability, T/C [19]: 25.2%
- viability, T/C [20]: 37.8%
- viability, T/C [21]: 73.2%
- viability, T/C [22]: 59.3%
- viability, T/C [23]: 38.3%
- viability, T/C [24]: 4.97%
- viability, T/C [25]: 17.6%
- viability, T/C [26]: 21.1%
- viability, T/C [27]: 32.8%
- viability, T/C [28]: 35.9%
- viability, T/C [29]: 24.6%
- viability, T/C [30]: 4.64%
- viability, T/C [31]: 11.3%
- viability, T/C [32]: 12.2%
- viability, T/C [33]: 14.2%
- viability, T/C [34]: 15.7%
- viability, T/C [35]: 14.9%
- viability, T/C [36]: 1.88%

Structure (SMILES): Cn1nccc1Nc1nccc(-c2ccn(C(CO)c3ccc(Cl)c(F)c3)c(=O)c2)n1 (stereo not drawn) + CC(Nc1ncnc2nc[nH]c12)c1cc2cccc(Cl)c2c(=O)n1-c1ccccc1
- IC50 (second compound 0.0316 µM): 737 nM
- IC50 (second compound 0.1 µM): 416 nM
- IC50 (second compound 0.316 µM): 362 nM
- IC50 (second compound 1 µM): 424 nM
- IC50 (second compound 3.16 µM): 254 nM
- IC50 (second compound 10 µM): 68.5 nM
- viability, T/C [1]: 83.5%
- viability, T/C [2]: 64.9%
- viability, T/C [3]: 84%
- viability, T/C [4]: 40.1%
- viability, T/C [5]: 28.7%
- viability, T/C [6]: 24.9%
- viability, T/C [7]: 75.4%
- viability, T/C [8]: 73.4%
- viability, T/C [9]: 46.5%
- viability, T/C [10]: 43.6%
- viability, T/C [11]: 25.8%
- viability, T/C [12]: 20.6%
- viability, T/C [13]: 77.9%
- viability, T/C [14]: 62.7%
- viability, T/C [15]: 53.6%
- viability, T/C [16]: 38%
- viability, T/C [17]: 28.4%
- viability, T/C [18]: 19.5%
- viability, T/C [19]: 71.5%
- viability, T/C [20]: 66.9%
- viability, T/C [21]: 46.3%
- viability, T/C [22]: 48.1%
- viability, T/C [23]: 26%
- viability, T/C [24]: 19.2%
- viability, T/C [25]: 77.1%
- viability, T/C [26]: 67.7%
- viability, T/C [27]: 42.1%
- viability, T/C [28]: 32.8%
- viability, T/C [29]: 23.5%
- viability, T/C [30]: 12.6%
- viability, T/C [31]: 58.1%
- viability, T/C [32]: 46.8%
- viability, T/C [33]: 28.8%
- viability, T/C [34]: 18.3%
- viability, T/C [35]: 16.7%
- viability, T/C [36]: 9.7%

Structure (SMILES): CC1(C)CCC(CN2CCN(c3ccc(C(=O)NS(=O)(=O)c4ccc(NCC5CCOCC5)c([N+](=O)[O-])c4)c(Oc4cnc5[nH]ccc5c4)c3)CC2)=C(c2ccc(Cl)cc2)C1 + Cc1nc(NC(=O)N2CCCC2C(N)=O)sc1-c1ccnc(C(C)(C)C(F)(F)F)c1
- IC50 (second compound 0.0316 µM): 5030 nM
- IC50 (second compound 0.1 µM): 4930 nM
- IC50 (second compound 0.316 µM): 3530 nM
- IC50 (second compound 1 µM): < 31.6 nM
- IC50 (second compound 3.16 µM): < 31.6 nM
- IC50 (second compound 10 µM): < 31.6 nM
- viability, T/C [1]: 50.2%
- viability, T/C [2]: 81.4%
- viability, T/C [3]: 78.5%
- viability, T/C [4]: 83%
- viability, T/C [5]: 95.5%
- viability, T/C [6]: 8.94%
- viability, T/C [7]: 51.2%
- viability, T/C [8]: 74.1%
- viability, T/C [9]: 93.8%
- viability, T/C [10]: 69.1%
- viability, T/C [11]: 90.8%
- viability, T/C [12]: 8.73%
- viability, T/C [13]: 50.5%
- viability, T/C [14]: 57.7%
- viability, T/C [15]: 44%
- viability, T/C [16]: 61.1%
- viability, T/C [17]: 58.6%
- viability, T/C [18]: 9.2%
- viability, T/C [19]: 26.7%
- viability, T/C [20]: 24.3%
- viability, T/C [21]: 27.9%
- viability, T/C [22]: 25.4%
- viability, T/C [23]: 22.6%
- viability, T/C [24]: 4.29%
- viability, T/C [25]: 16.6%
- viability, T/C [26]: 16.1%
- viability, T/C [27]: 13.4%
- viability, T/C [28]: 18.5%
- viability, T/C [29]: 18.1%
- viability, T/C [30]: 4.62%
- viability, T/C [31]: 9.42%
- viability, T/C [32]: 8.27%
- viability, T/C [33]: 7.16%
- viability, T/C [34]: 8.26%
- viability, T/C [35]: 8.41%
- viability, T/C [36]: 2.21%

Structure (SMILES): CNC(=O)c1ccc(N2C(=S)N(c3ccc(C#N)c(C(F)(F)F)c3)C(=O)C2(C)C)cc1F + COc1c(OCCCN2CCOCC2)ccc2c3n(c(=NC(=O)c4cnc(N)nc4)nc12)CCN3
- IC50 (second compound 0.00316 µM): 8990 nM
- IC50 (second compound 0.01 µM): < 31.6 nM
- IC50 (second compound 0.0316 µM): < 31.6 nM
- IC50 (second compound 0.1 µM): < 31.6 nM
- IC50 (second compound 0.316 µM): < 31.6 nM
- IC50 (second compound 1 µM): < 31.6 nM
- viability, T/C (second compound 0.00316 µM, first compound 0.0316 µM): 71.2%
- viability, T/C (second compound 0.00316 µM, first compound 0.1 µM): 80.3%
- viability, T/C (second compound 0.00316 µM, first compound 0.316 µM): 40.8%
- viability, T/C (second compound 0.00316 µM, first compound 1 µM): 63.6%
- viability, T/C (second compound 0.00316 µM, first compound 3.16 µM): 66.3%
- viability, T/C (second compound 0.00316 µM, first compound 10 µM): 42.7%
- viability, T/C (second compound 0.01 µM, first compound 0.0316 µM): 33.4%
- viability, T/C (second compound 0.01 µM, first compound 0.1 µM): 46.7%
- viability, T/C (second compound 0.01 µM, first compound 0.316 µM): 51.3%
- viability, T/C (second compound 0.01 µM, first compound 1 µM): 48.2%
- viability, T/C (second compound 0.01 µM, first compound 3.16 µM): 45.4%
- viability, T/C (second compound 0.01 µM, first compound 10 µM): 39.7%
- viability, T/C [1]: 33.8%
- viability, T/C [2]: 29.1%
- viability, T/C [3]: 29.9%
- viability, T/C [4]: 27.3%
- viability, T/C [5]: 23%
- viability, T/C [6]: 22.4%
- viability, T/C [7]: 16.1%
- viability, T/C [8]: 13.9%
- viability, T/C [9]: 14.9%
- viability, T/C [10]: 15%
- viability, T/C [11]: 15.4%
- viability, T/C [12]: 15.3%
- viability, T/C [13]: 8.96%
- viability, T/C [14]: 8.69%
- viability, T/C [15]: 7.55%
- viability, T/C [16]: 9.53%
- viability, T/C [17]: 7.67%
- viability, T/C [18]: 8.88%
- viability, T/C [19]: 4.12%
- viability, T/C [20]: 4.26%
- viability, T/C [21]: 4.87%
- viability, T/C [22]: 4.38%
- viability, T/C [23]: 5.02%
- viability, T/C [24]: 5.37%
